Measurements as given in patent US20080153903A1, “INHIBITORS OF PROTEIN KINASE C-DELTA FOR THE TREATMENT OF GLAUCOMA” (ALCON MANUFACTURING, LTD., priority 2006, published 2008).

How the values were obtained:
GTM-3 cells [1] = assay: PAI-I ELISA of culture supernatants from treated GTM-3 cell monolayers (TGFβ2 mediated responses); assay type: cell-based, human; conditions: GTM-3 monolayers, 24 h; for TGFβ2-stimulated PAI-I levels in supernatants: FIG. 2
Protocol: FIG. 2A, FIG. 2B and FIG. 2C depicts the effects of PKC inhibition on basal and stimulated (TGFβ2) PAI-I content in supernatants collected from treated monolayers of GTM-3 cells.
(§1) Cultured transformed human TM cells (“GTM-3”; see Pang I H, et al., 1994) were grown in a growth medium consisting of Dulbecco's modified Eagle's medium with Glutamax I (Gibco/Invitrogen, Grand Island, N.Y.) supplemented with 10% fetal bovine serum (Hyclone, Logan, Utah) and 50 μg/mL gentamicin (Gibco/Invitrogen). For assay, cultures were enzymatically-dissociated (TrypLE Express; Gibco/Invitrogen) then seeded into 24-well plates (Corning Costar, Acton, Mass.) and allowed to grow until monolayers reached approximately 90-95% confluence. Culture medium was then replaced with 0.25 mL serum- and antibiotic-free medium containing the appropriate test compound(s). Cells were incubated 24 h, at 5% CO2 and 37° C. Aliquots of culture supernatants were then assayed using ELISA kits for fibronectin (AssayPro, St. Charles, Mo.), PAI-I (American Diagnostica, Stamford, Conn.) and procollagen Type I C-peptide (TaKaRa Bio, Shiga, Japan).
(§2) The test compounds used were rottlerin (a specific PKC-delta inhibitor), Gö6976 (inhibits the calcium-dependent PKC isoforms alpha, beta, & mu) and bisindolylmaleimide I (a broad-spectrum PKC inhibitor).

GTM-3 cells [2] = assay: Fibronectin ELISA of culture supernatants from treated GTM-3 cell monolayers (TGFβ2 mediated responses); assay type: cell-based, human; conditions: GTM-3 monolayers, 24 h; for TGFβ2-stimulated fibronectin levels in supernatants: FIG. 1
Protocol: FIG. 1A, FIG. 1B and FIG. 1C depict the effects of various amounts of PKC inhibitors on basal and stimulated (TGFβ2) fibronectin content in supernatants collected from treated monolayers of GTM-3 cells.
as §1, §2

| SMILES | TGFβ2-stimulated PAI-I levels in supernatants (GTM-3 cells [1]) | TGFβ2-stimulated fibronectin levels in supernatants (GTM-3 cells [2]) | basal fibronectin in supernatants (GTM-3 cells [2]; basal, 10 uM dose, FIG. 1A) | fibronectin levels in supernatants (GTM-3 cells [2]; basal and TGFβ2-stimulated, tested concentrations, FIG. 1C) | basal PAI-I content in supernatants (GTM-3 cells [1]; basal, FIG. 2B) | basal fibronectin content in supernatants (GTM-3 cells [2]; basal, FIG. 1B) |
| --- | --- | --- | --- | --- | --- | --- |
| CC(=O)c1c(O)c(C)c(O)c(Cc2c(O)c3c(c(C(=O)/C=C/c4ccccc4)c2O)OC(C)(C)C=C3)c1O [rottlerin] | dose-dependently reduces TGFβ2-stimulated PAI-I levels | effectively reduces TGFβ2-stimulated fibronectin levels at both tested concentrations | effectively reduced basal fibronectin |  |  |  |
| CN(C)CCCn1cc(C2=C(c3c[nH]c4ccccc34)C(=O)NC2=O)c2ccccc21 [Bis I, bisindolylmaleimide I] | reduced TGFβ2-stimulated PAI-I levels only at the 100 nM dose |  |  | lack of effect |  |  |
| Cn1c2ccccc2c2c3c(c4c5ccccc5n(CCC#N)c4c21)CNC3=O [Gö6976] | without effect | without effect |  |  | without effect | without effect |
